This note sets out measurements from patent publication US20250381168A1, “VLA4 INHIBITORS AND USES THEREOF” (Washington University, priority 2022, published 2025).

Test [1] deals with hematopoietic stem/progenitor cells (HSPCs). Kind of test: HSPC mobilization into peripheral blood, colony forming unit (CFU) assay. The note with it: mice; for No. CFU (×10^3)/mL ± SD, 1 hr: 1 hr post dose (TABLE 20); for No. CFU (×10^3)/mL ± SD, 8 hr: 8 hr post dose (TABLE 20); for No. CFU (×10^3)/mL ± SD, 0.25 hr: 0.25 hr post dose (TABLE 5).
For test [2], the target named is VLA-4 (a4b1) (Homo sapiens (Human), UniProt P05556+P13612). Kind of test: sVCAM flow cytometry cell-based assay (inhibition of soluble VCAM-1 binding to G2 ALL cells). (A flow cytometer gives signals particle by particle.);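 note: compounds at 0.1 to 1000 nM preincubated 30 min with G2 ALL cells, then VCAM/Fc added for 30 min, bound VCAM-1 detected by PE secondary antibody, percent binding cells by flow cytometry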
Procedure: VLA-4 (a4b1) inhibitor compounds were tested for their ability to inhibit the binding of soluble VCAM-1 to human G2 acute lymphoblastic leukemia (ALL) cells. Briefly, G2 ALL cells are pre-incubated with increasing concentrations (0.1 to 1000 nM) of compounds for 30 minutes. Soluble VCAM/Fc chimera protein (R & D systems) is then added to the mixture and the cells incubated for an additional 30 minutes. Afterwards, cells are washed and VCAM-1 is detected using a PE-conjugated secondary polyclonal antibody. In each experiment, an aliquot of cells are stained with isotype control antibodies to serve as a negative control. The percentage of VCAM-1 binding cells was then determined by flow cytometry.
Setting [3] is: inhibition of sVCAM-1 binding to human G2 ALL cells (TABLE 3), read-out: SVCAM-1, IC50.
The mark [4] stands for this setting: single dose, peripheral blood, 4 hr post dose (TABLE 20).
[5] abbreviates: single s.c. injection, peripheral blood.
Where [6] appears, read: single s.c. injection, peripheral blood, 2 hr post dose (TABLE 5).
Where [7] appears, read: single s.c. injection, peripheral blood, 4 hr post dose (TABLE 5).
Setting [8] is: as listed in TABLE 5, read-out: sVCAM IC50.

Molecules are shown by their SMILES. pIC50: −log10 of the molar value. Where two headings read alike, the source gives them in different places.

Sequence of VLA-4 (a4b1) (P13612 34-1032): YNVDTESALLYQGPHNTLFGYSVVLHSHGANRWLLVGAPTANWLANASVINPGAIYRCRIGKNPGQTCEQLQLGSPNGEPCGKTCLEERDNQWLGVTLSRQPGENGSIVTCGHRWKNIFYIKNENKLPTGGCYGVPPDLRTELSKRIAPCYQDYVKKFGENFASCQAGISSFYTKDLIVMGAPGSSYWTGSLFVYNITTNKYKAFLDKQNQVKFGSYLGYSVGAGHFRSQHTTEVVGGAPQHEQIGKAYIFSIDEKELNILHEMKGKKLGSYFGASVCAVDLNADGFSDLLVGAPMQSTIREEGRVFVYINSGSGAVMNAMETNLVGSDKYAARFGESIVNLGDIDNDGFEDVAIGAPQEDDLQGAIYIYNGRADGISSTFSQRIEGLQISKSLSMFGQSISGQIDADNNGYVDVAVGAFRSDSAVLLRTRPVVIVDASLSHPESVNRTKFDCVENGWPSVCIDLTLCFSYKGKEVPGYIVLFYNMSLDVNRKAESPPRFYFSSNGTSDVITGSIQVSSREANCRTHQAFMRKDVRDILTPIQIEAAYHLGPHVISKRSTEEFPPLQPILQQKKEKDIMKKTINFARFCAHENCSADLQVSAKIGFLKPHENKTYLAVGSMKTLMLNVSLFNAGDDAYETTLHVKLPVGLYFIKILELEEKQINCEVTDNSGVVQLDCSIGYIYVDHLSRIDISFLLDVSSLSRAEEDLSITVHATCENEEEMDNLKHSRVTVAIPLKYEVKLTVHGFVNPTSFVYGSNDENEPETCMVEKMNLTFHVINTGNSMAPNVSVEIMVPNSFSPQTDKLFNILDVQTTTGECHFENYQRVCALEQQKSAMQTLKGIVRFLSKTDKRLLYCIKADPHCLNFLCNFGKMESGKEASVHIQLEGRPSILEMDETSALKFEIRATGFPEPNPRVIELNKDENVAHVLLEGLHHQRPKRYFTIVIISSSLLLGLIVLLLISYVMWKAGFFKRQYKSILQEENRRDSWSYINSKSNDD
Sequence of VLA-4 (a4b1) (P05556 21-798): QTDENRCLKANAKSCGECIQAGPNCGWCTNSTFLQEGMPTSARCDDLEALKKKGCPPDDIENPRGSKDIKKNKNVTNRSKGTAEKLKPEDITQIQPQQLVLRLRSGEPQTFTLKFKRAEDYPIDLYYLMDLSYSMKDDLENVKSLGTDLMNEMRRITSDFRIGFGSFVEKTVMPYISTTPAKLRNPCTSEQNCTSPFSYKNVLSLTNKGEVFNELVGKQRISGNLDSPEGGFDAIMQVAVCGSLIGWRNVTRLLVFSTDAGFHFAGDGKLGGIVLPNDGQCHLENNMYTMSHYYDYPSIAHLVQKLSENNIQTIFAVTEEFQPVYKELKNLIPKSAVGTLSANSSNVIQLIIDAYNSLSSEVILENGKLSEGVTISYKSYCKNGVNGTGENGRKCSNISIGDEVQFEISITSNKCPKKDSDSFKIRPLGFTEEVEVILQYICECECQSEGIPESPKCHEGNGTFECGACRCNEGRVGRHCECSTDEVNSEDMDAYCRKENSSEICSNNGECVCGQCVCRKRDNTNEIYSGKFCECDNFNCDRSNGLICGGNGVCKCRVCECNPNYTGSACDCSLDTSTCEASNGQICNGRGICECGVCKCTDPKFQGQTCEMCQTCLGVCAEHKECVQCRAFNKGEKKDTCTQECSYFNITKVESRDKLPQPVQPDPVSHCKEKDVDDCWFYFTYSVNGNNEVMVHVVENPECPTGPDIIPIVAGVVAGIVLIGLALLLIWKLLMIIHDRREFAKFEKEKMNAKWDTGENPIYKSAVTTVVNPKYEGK

Regarding `c1cc(CN2CCCNCCNCCCNCC2)ccc1CN1CCCNCCNCCCNCC1` [AMD3100, plerixafor], the “No. CFU (×10^3)/mL ± SD, 2 hr” value in test [1] (single dose alone or in combination with AMD3100 (5 mg/kg s.c.), peripheral blood, 2 hr (TABLE 14)) is recorded as 3.42 ± 1.42 (×10^3)/mL. In addition, in test [1] (single dose alone or in combination with AMD3100 (5 mg/kg s.c.), peripheral blood, 3 hr (TABLE 14)), the “No. CFU (×10^3)/mL ± SD, 3 hr” value is 5.08 ± 2.32 (×10^3)/mL. Further, in test [1] (single dose alone or in combination with AMD3100 (5 mg/kg s.c.), peripheral blood, 5 hr (TABLE 14)), the “No. CFU (×10^3)/mL ± SD, 5 hr” value is given as 2.38 ± 0.73 (×10^3)/mL.

For `O=C(O)[C@H](Cc1ccc(OC(=O)N2CCCC2)cc1)NC(=O)[C@@H]1CCCN1S(=O)(=O)c1ccccc1` [BOP, (N-benzenesulfonyl)-L-prolyl-L-O-(1-pyrrolidinylcarbonyl)tyrosine], in test [1] (single dose), the “HSPC mobilization, result in words” value is “rapid but transient mobilization of HSPCs but are returning to baseline by 2 hours”. Moreover, the pIC50 in test [2] (as listed in TABLE 13, for the VLA-4 inhibitor alone, read-out: sVCAM IC50) is 7.33; in test [2] (setting [3]), 7.33.

Consider `CN(C)c1ccc2c(c1)c(=O)n(-c1ccc(C[C@H](NC(=O)c3c(Cl)cccc3Cl)C(=O)O)cc1)c(=O)n2C` [Carotegrast], for which, in test [1] (single dose, peripheral blood), the “No. CFU (×10^3)/mL ± SD, 1 hr” value is 0.58 ± 0.19 (×10^3)/mL and the “No. CFU (×10^3)/mL ± SD, 8 hr” value was 0.19 ± 0.09 (×10^3)/mL. In addition, the “No. CFU (×10^3)/mL ± SD, 4 hr” value in test [1] (setting [4]) was 0.18 ± 0.08 (×10^3)/mL. Moreover, the pIC50 in test [2] (as listed in TABLE 20, read-out: sVCAM IC50) was 6.93. In addition, the pIC50 in test [2] (setting [3]) is 6.93.

With `COCCOCCOCCOCCOCCOCCOCCOCCOCCOCCOCCOCCOCCOCCOCCOCCOCCOCCOCCOCCOCCOCCOCCOCCSCc1cc(OC)c(-c2ccc(C[C@H](NC(=O)[C@@H]3CCCN3S(=O)(=O)c3cc(Cl)cc(Cl)c3)C(=O)O)cc2)c(OC)c1` [Example 7, (2S)-2-[[(2S)-1-(3,5-dichlorophenyl)sulfonylpyrrolidine-2-carbonyl]amino]-3-[4-[2,6-dimethoxy-4-[2-[2-[2-[2-[2-[2-[2-[2-[2-[2-[2-[2-[2-[2-[2-[2-[2-[2-[2-[2-[2-[2-[2-(2-thiomethylethoxy)ethoxy]ethoxy]ethoxy]ethoxy]ethoxy]ethoxy]ethoxy]ethoxy]ethoxy]ethoxy]ethoxy]ethoxy]ethoxy]ethoxy]ethoxy]ethoxy]ethoxy]ethoxy]ethoxy]ethoxy]ethoxy]ethoxy]ethoxymethyl]phenyl]phenyl]propanoic acid], in test [1] (single dose, peripheral blood, 2 hr post dose (TABLE 11)), the “No. CFU (x10^3)/mL ± SD, 2 hr” value was 2.53 ± 1.11 (x10^3)/mL. The “No. CFU (x10^3)/mL ± SD, 4 hr” value in test [1] (single dose, peripheral blood, 4 hr post dose (TABLE 11)) is 3.91 ± 1.44 (x10^3)/mL. The “No. CFU (x10^3)/mL ± SD, 6 hr” value in test [1] (single dose, peripheral blood, 6 hr post dose (TABLE 11)) is reported as 2.96 ± 1.15 (x10^3)/mL. Also, the “No. CFU (x10^3)/mL ± SD, 24 hr” value in test [1] (single dose, peripheral blood, 24 hr post dose (TABLE 11)) is listed as 0.15 ± 0.05 (x10^3)/mL. Also, the pIC50 in test [2] (as listed in TABLE 11, read-out: sVCAM IC50) is 8.87; in test [2] (setting [3]) it was 8.87.

`COc1cc(CO)cc(OC)c1-c1ccc(C[C@H](NC(=O)c2c(Cl)cc(C(=O)O)cc2Cl)C(=O)O)cc1` [Example C2]: in test [1] (setting [5]), the “No. CFU (×10^3)/mL ± SD, 0.25 hr” value was 4.08 ± 1.66 (×10^3)/mL. For the same compound, the “No. CFU (×10^3)/mL ± SD, 2 hr” value in test [1] (setting [6]) is 2.87 ± 1.47 (×10^3)/mL. Besides, the “No. CFU (×10^3)/mL ± SD, 4 hr” value in test [1] (setting [7]) was 0.53 ± 0.30 (×10^3)/mL. Further, the pIC50 in test [2] (setting [8]) and in test [2] (setting [3]) was 8.42 throughout.

For `CCOCc1cc(OC)c(-c2ccc(C[C@H](NC(=O)c3c(Cl)cc(C(=O)O)cc3Cl)C(=O)O)cc2)c(OC)c1` [Example C3], the “No. CFU (×10^3)/mL ± SD, 0.25 hr” value in test [1] (setting [5]) is listed as 3.69 ± 0.52 (×10^3)/mL. In addition, the “No. CFU (×10^3)/mL ± SD, 2 hr” value in test [1] (setting [6]) is on record as 1.58 ± 0.74 (×10^3)/mL. For the same compound, the “No. CFU (×10^3)/mL ± SD, 4 hr” value in test [1] (setting [7]) is 0.30 ± 0.11 (×10^3)/mL. Besides, the pIC50 in test [2] (setting [8]) and in test [2] (setting [3]) was 8.87 each time.

Consider `CCOCc1cc(OC)c(-c2ccc(C[C@H](NC(=O)c3c(F)cccc3F)C(=O)O)cc2)c(OC)c1` [Firategrast, firategrast], for which, in test [1] (single dose, peripheral blood), the “No. CFU (×10^3)/mL ± SD, 1 hr” value is listed as 0.34 ± 0.12 (×10^3)/mL and the “No. CFU (×10^3)/mL ± SD, 8 hr” value is given as 0.24 ± 0.14 (×10^3)/mL. Besides, the “No. CFU (×10^3)/mL ± SD, 4 hr” value in test [1] (setting [4]) was 0.24 ± 0.14 (×10^3)/mL.

Regarding `c1cc(CN2CCCNCCNCCCNCC2)ccc1CN1CCCNCCNCCCNCC1` [Plerixafor, plerixafor], the “No. CFU (x10^3)/mL ± SD, 4 hr” value in test [1] (single dose alone or in combination with Plerixafor (5 mg/kg s.c.), peripheral blood, 4 hr (TABLE 15)) was 1.25 ± 0.30 (x10^3)/mL. Moreover, the “No. CFU (x10^3)/mL ± SD, 6 hr” value in test [1] (single dose alone or in combination with Plerixafor (5 mg/kg s.c.), peripheral blood, 6 hr (TABLE 15)) was 0.28 ± 0.12 (x10^3)/mL. In addition, in test [1] (single dose alone or in combination with Plerixafor (5 mg/kg s.c.), peripheral blood, 24 hr (TABLE 15)), the “No. CFU (x10^3)/mL ± SD, 24 hr” value was 0.22 ± 0.08 (x10^3)/mL.
